According to patent US20240299400A1, “Transcription Factor GLI1 Inhibitors and Uses Thereof” (University of Connecticut, priority 2023, published 2024):

Experiments:
DAOY (MB) = test: MTS anti-proliferative assay in DAOY cells; assay type: cell-based; conditions: Homo sapiens, Daoy; Table 8, 48 h, mean ± SEM
Protocol: (§1) Cell viability was assessed by MTS proliferation assay kit (Promega) per manufacturer's protocol. Briefly, 2×10^4 cells were plated in a 96-well plate in 100 μL growth medium to make the cell population at ˜80% confluence. After 24 h, 1 μL drug solution was added to each well. DMSO was used as vehicle compound. After 48 h incubation (37° C., 5% CO2), 20 μL of freshly prepared 3-(4,5-dimethylthiazol-2-yl)-5-(3-carboxymethoxyphenyl)-2-(4-sulfophenyl)-2H-tetrazolium (MTS)/phenazine methosulfate (PMS) solution was added to each well, and the plate was returned to the incubator for 1 h. Absorbance at 490 nm was recorded, and the result was analyzed by GraphPad Prism 5. GI50 values represent mean±SEM for at least two separate experiments performed in triplicate.

GLI1 mRNA expression [1] = test: RT-qPCR GLI1 mRNA expression in Sufu-KO MEFs; assay type: cell-based, mouse; conditions: for IC50: Mus musculus, Ave ± SEM, read-out: RT-qPCR, IC50 Sufu-KO
Protocol: (§2) ASZ001 and Sufu-KO cells were seeded in 96-well plates (10,000/well, 100 μL) and incubated overnight under growth conditions. On the second day, ‘growth’ media was removed and replaced by ‘assay’ media (100 μL). On the third day, cells were treated with a serial dilution of drugs or DMSO for 48 h. mRNA expression was determined through Taqman Fast Cells-to-CT Kit (#4399003) per the manufacturer's instructions. In brief, cells were washed with chilled PBS, then mixed with lysis solution containing DNase I and incubated at RT for 5 min. Stop solution was then added to quench the lysis reagents. cDNA was then synthesized through a BioRad MyCycler following addition of reverse transcriptase. Finally, the cDNA was amplified through an ABI 7500 system following addition of Taqman Fast Universal PCR Master Mix and Taqman Gene Expression Primer. Relative gene expression levels were computed by the ΔΔCt method. Values represent mRNA expression relative to DMSO control (set at 1.0). Data were analyzed using GraphPad Prism, and IC50 values are the mean±SEM for at least two separate experiments performed in triplicate. Primers used are as follows: mouse ActB (Mm00607939_s1); mouse GLI1 (Mm00494645_ml); mouse Gli2 (Mm01293117_ml); mouse Ptch1 (Mm00436026_ml); mouse Hhip (Mm00469580_ml).

GLI1 mRNA expression [2] = test: RT-qPCR GLI1 mRNA expression in ASZ001 BCC cells; assay type: cell-based, mouse; conditions: Mus musculus, Ave ± SEM, read-out: RT-qPCR, IC50 ASZ001
Protocol: as §2

ASZ001 cells = test: MTS anti-proliferative assay in ASZ001 cells; assay type: cell-based, murine; conditions: Mus musculus, ASZ001, Ave ± SEM
Protocol: as §1

PANC-1 (pancreatic) = test: MTS anti-proliferative assay in PANC-1 cells; assay type: cell-based; conditions: Homo sapiens, PANC-1; Table 8, 48 h, mean ± SEM
Protocol: as §1

GLI1-ZFD = target: T1, GLI1-ZFD (Homo sapiens, UniProt P08151); test: Microscale thermophoresis (MST) binding to GLI1-ZFD; conditions: for binding to GLI1 (in words): MST binding assay
T1 construct: GLI1-ZFD Expression and Purification; made in house
T1 sequence (P08151 234-388 limits assumed): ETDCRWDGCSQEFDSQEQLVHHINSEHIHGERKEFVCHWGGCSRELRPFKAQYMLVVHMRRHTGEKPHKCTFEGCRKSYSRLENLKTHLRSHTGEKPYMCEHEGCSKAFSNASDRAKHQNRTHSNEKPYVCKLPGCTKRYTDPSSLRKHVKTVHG
Protocol: The protein expression and purification experiments followed the previous reported procedures [C. A. Maschinot, et al., Synthesis and evaluation of third generation vitamin D3 analogues as inhibitors of hedgehog signaling. Euro. J. Med. Chem. 162 (2019) 495-506].
GLI1 protein labeling was performed through the Monolith Protein Labeling Kit RED-NHS 2nd Generation (Nanotemper #MO-LO11) per the manufacturer's instructions. Briefly, GLI1 (100 μg, 1 mg/mL) underwent buffer exchange to remove incompatible ingredients like Tris or DTT. Proteins in the Labeling Buffer were incubated with freshly prepared dye (˜3-fold excess of dye) for 30 min at RT in the dark. Unreacted ‘free’ dye was removed by a gel-filtration column. Protein concentration and degree-of-labeling were calculated by measuring absorption at 280 nm and 650 nm. For each assay, 200 nM GLI1 in MST Buffer was mixed with compound dilution in DMSO (DMSO<5%, v/v). The mixture was then loaded to a capillary and the thermophoresis was subsequently determined through Monolith NT.115 station. Results were analyzed by MO.Affinity Analysis software and visualized by Graphpad Prism. MST Buffer: 50 mM HEPES, pH 8.3, 100 mM NaCl.

| IC50 (GLI1 mRNA expression [1]; Table 7, GLI1 mRNA) | IC50 (GLI1 mRNA expression [2]; ASZ001, Table 7, GLI1 mRNA) | Compound | GI50 (ASZ001 cells; Table 7, 48 h) | further results |
| --- | --- | --- | --- | --- |
|  |  | CCN(CC)c1ccc(C(Nc2ccccn2)c2ccc3cccnc3c2O)cc1 (stereo not shown) [Compound 15, 7-((4-Diethylaminophenyl)(pyridin-2-ylamino)methyl)quinolin-8-ol] |  | GI50 (DAOY (MB)): 8.2 ± 1.6 µM; IC50 (GLI1 mRNA expression [1]; Table 5, GLI1 mRNA): 1.1 ± 0.3 µM; IC50 (GLI1 mRNA expression [2]; ASZ001, Table 5, GLI1 mRNA): 1.4 ± 0.4 µM; GI50 (ASZ001 cells; Table 5, 48 h): 12.2 ± 2 µM; GI50 (PANC-1 (pancreatic)): 10 ± 1.1 µM |
|  |  | CCN(CC)c1ccc(C(Nc2ccccn2)c2ccccc2O)cc1 (stereo not shown) [Compound 18, 2-((4-Diethylaminophenyl)(pyridin-2-ylamino)methyl)phenol] |  | Kd (GLI1-ZFD; Table 5, Ave ± SEM): > 125 µM; IC50 (GLI1 mRNA expression [1]; Table 5, GLI1 mRNA): > 25 µM; IC50 (GLI1 mRNA expression [2]; ASZ001, Table 5, GLI1 mRNA): 15.2 ± 5 µM; GI50 (ASZ001 cells; Table 5, 48 h): > 100 µM; GI50 (PANC-1 (pancreatic)): > 100 µM |
|  |  | CCN(CC)c1ccc(C(Nc2ccccn2)c2ccc3ccc(C)nc3c2OC2CCCC2)cc1 (stereo not shown) [Compound 22, N-((4-Diethylaminophenyl)(8-cyclopentyloxy-2-methylquinolin-7-yl)methyl)pyridin-2-amine] |  | binding to GLI1 (in words) (GLI1-ZFD): did not bind to GLI1; anti-GLI1 activity in Sufu-KO cells (in words) (GLI1 mRNA expression [1]): inactive; IC50 (GLI1 mRNA expression [1]; Table 5, GLI1 mRNA): > 25 µM; IC50 (GLI1 mRNA expression [2]; ASZ001, Table 5, GLI1 mRNA): 0.54 µM; GI50 (ASZ001 cells; Table 5, 48 h): > 100 µM |
|  |  | CCN(CC)c1ccc(C(NC)c2cc(C)c3ccc(C)nc3c2O)cc1 (stereo not shown) [Compound 29, 7-((4-(Diethylamino)phenyl)(methylamino)methyl)-2,5-dimethylquinolin-8-ol] |  | IC50 (GLI1 mRNA expression [1]; Table 6, GLI1 mRNA): > 25 µM; IC50 (GLI1 mRNA expression [2]; ASZ001, Table 6, GLI1 mRNA): 15.4 ± 2.2 µM; GI50 (ASZ001 cells; Table 6, 48 h): > 100 µM |
|  |  | CCN(CC)c1ccc(C(Nc2cccnc2)c2ccc3ccc(C)nc3c2O)cc1 (stereo not shown) [Compound 30, 7-((4-(diethylamino)phenyl)(pyridin-3-ylamino)methyl)-2-methylquinolin-8-ol] |  | IC50 (GLI1 mRNA expression [1]; Table 6, GLI1 mRNA): 4.4 ± 1.9 µM; IC50 (GLI1 mRNA expression [2]; ASZ001, Table 6, GLI1 mRNA): 2.5 ± 0.8 µM; GI50 (ASZ001 cells; Table 6, 48 h): 81.4 ± 10.7 µM |
|  |  | CCN(CC)c1ccc(C(Nc2ccncc2)c2ccc3ccc(C)nc3c2O)cc1 (stereo not shown) [Compound 31, 7-((4-(diethylamino)phenyl)(pyridin-4-ylamino)methyl)-2-methylquinolin-8-ol] |  | IC50 (GLI1 mRNA expression [1]; Table 6, GLI1 mRNA): > 25 µM; IC50 (GLI1 mRNA expression [2]; ASZ001, Table 6, GLI1 mRNA): 21.4 ± 6.7 µM; GI50 (ASZ001 cells; Table 6, 48 h): > 100 µM |
| 4.8 ± 1.4 µM | 5.3 ± 1.7 µM | Cc1ccc2c(C)cc(C(C)Nc3ccccn3)c(O)c2n1 (stereo not shown) [Compound 32, 2,5-Dimethyl-7-(1-(pyridin-2-ylamino)ethyl)quinolin-8-ol] | 29.8 ± 4 µM |  |
| 8.8 ± 2.7 µM | 7.1 ± 2 µM | Cc1ccc2c(C)cc(C(C)Nc3ccccc3)c(O)c2n1 (stereo not shown) [Compound 33, 2,5-Dimethyl-7-(1-(phenylamino)ethyl)quinolin-8-ol] | 29.5 ± 5.1 µM | GI50 (PANC-1 (pancreatic)): 56.3 ± 9.4 µM |
| 9 ± 2.2 µM | 15.8 ± 6.3 µM | CCN(CC)c1ccccc1C(Nc1ccccn1)c1ccc2ccc(C)nc2c1O (stereo not shown) [Compound 35, 7-((2-Diethylaminophenyl)(pyridin-2-ylamino)methyl)-2-methylquinolin-8-ol] | 29.3 ± 4.9 µM | binding to GLI1 (in words) (GLI1-ZFD): do not bind GLI1; Kd (GLI1-ZFD; Table 7, Ave ± SEM): > 125 µM |
| 5.6 ± 1.5 µM | 15.1 ± 4.1 µM | CCN(CC)c1cccc(C(Nc2ccccn2)c2ccc3ccc(C)nc3c2O)c1 (stereo not shown) [Compound 36, 7-((3-Diethylaminophenyl)(pyridin-2-ylamino)methyl)-2-methylquinolin-8-ol] | 82.5 ± 20.3 µM |  |
| 5.3 ± 1.3 µM | 19.2 ± 5.5 µM | Cc1ccc2ccc(C(Nc3ccccn3)c3cccc(F)c3)c(O)c2n1 (stereo not shown) [Compound 37, 7-((3-Fluorophenyl)(pyridin-2-ylamino)methyl)-2-methylquinolin-8-ol] | 33.1 ± 9.1 µM |  |
| 10.6 ± 2.6 µM | 19.3 ± 5 µM | CCNc1cccc(C(Nc2ccccn2)c2ccc3ccc(C)nc3c2O)c1 (stereo not shown) [Compound 38, 7-((3-Ethylaminophenyl)(pyridin-2-ylamino)methyl)-2-methylquinolin-8-ol] | > 100 µM |  |
| 5.6 ± 0.9 µM | 17.3 ± 6.1 µM | Cc1ccc2ccc(C(Nc3ccccn3)c3ccc([N+](=O)[O-])cc3)c(O)c2n1 (stereo not shown) [Compound 40, 7-((4-Nitrophenyl)(pyridin-2-ylamino)methyl)-2-methylquinolin-8-ol] | 61.8 ± 27.5 µM | GI50 (DAOY (MB)): 75.2 ± 17.4 µM; GI50 (PANC-1 (pancreatic)): > 100 µM |
| 3.5 ± 1 µM | 9.8 ± 1.3 µM | Cc1ccc2ccc(C(Nc3ccccn3)c3ccc(N)cc3)c(O)c2n1 (stereo not shown) [Compound 41, 7-((4-Aminophenyl)(pyridin-2-ylamino)methyl)-2-methylquinolin-8-ol] | > 100 µM |  |
| 4.3 ± 0.8 µM | 15.4 ± 4.7 µM | Cc1ccc2ccc(C(Nc3ccccn3)c3ccc(N4CCc5ccccc54)cc3)c(O)c2n1 (stereo not shown) [Compound 46, 7-((4-(Indolin-1-yl)phenyl)(pyridin-2-ylamino)methyl)-2-methylquinolin-8-ol] | 67.9 ± 12.8 µM |  |
| 1.7 ± 0.3 µM | 10.5 ± 3.2 µM | Cc1ccc2ccc(C(Nc3ccccn3)c3ccc(-n4ccc5ccccc54)cc3)c(O)c2n1 (stereo not shown) [Compound 47, 7-((4-(1H-indol-1-yl)phenyl)(pyridin-2-ylamino)methyl)-2-methylquinolin-8-ol] | 62.3 ± 13.5 µM |  |
| 1.1 ± 0.4 µM | 14.2 ± 2.4 µM | Cc1ccc2ccc(C(Nc3ccccn3)c3ccc(-n4cccc4)cc3)c(O)c2n1 (stereo not shown) [Compound 49, 7-((4-(1H-Pyrrol-1-yl)phenyl)(pyridin-2-ylamino)methyl)-2-methylquinolin-8-ol] | 91.7 ± 21 µM | Kd (GLI1-ZFD; Table 7, Ave ± SEM): 28.5 ± 7.2 µM; GI50 (PANC-1 (pancreatic)): > 100 µM |
| 3.8 ± 0.7 µM | > 25 µM | Cc1ccc2ccc(C(Nc3ccccn3)c3ccc(-n4ccnc4)cc3)c(O)c2n1 (stereo not shown) [Compound 50, 7-((4-(1H-Imidazol-1-yl)phenyl)(pyridin-2-ylamino)methyl)-2-methylquinolin-8-ol] | > 100 µM | Kd (GLI1-ZFD; Table 7, Ave ± SEM): 18.8 ± 5.2 µM |
| 13.6 ± 3.5 µM | 5.3 ± 1.2 µM | Cc1ccc2ccc(C(Nc3ccccn3)c3ccc(-n4ccnc4C)cc3)c(O)c2n1 (stereo not shown) [Compound 51, 7-((4-(2-Methyl-1H-imidazol-1-yl)phenyl)(pyridin-2-ylamino)methyl)-2-methylquinolin-8-ol] | > 100 µM |  |
| 1.5 ± 0.3 µM | 2.7 ± 0.9 µM | Cc1ccc2ccc(C(Nc3ccccn3)c3ccc(-n4cccn4)cc3)c(O)c2n1 (stereo not shown) [Compound 52, 7-((4-(1H-Pyrazol-1-yl)phenyl)(pyridin-2-ylamino)methyl)-2-methylquinolin-8-ol] | 37.2 ± 4.8 µM | Kd (GLI1-ZFD; Table 7, Ave ± SEM): 10.5 ± 4.4 µM |
| > 25 µM | 0.77 ± 0.03 µM | COc1c(C(Nc2ccccn2)c2ccc(N3CCCC3=O)cc2)ccc2ccc(C)nc12 (stereo not shown) [Compound 53, 1-(4-((8-Methoxy-2-methylquinolin-7-yl)(pyridin-2-ylamino)methyl)phenyl)pyrrolidin-2-one] | 42.9 ± 12.2 µM |  |
|  |  | CS(=O)(=O)c1ccc(C(=O)Nc2ccc(Cl)c(-c3ccccn3)c2)c(Cl)c1 [GDC-0449, reference compound] |  | IC50 (GLI1 mRNA expression [1]; Table 5, GLI1 mRNA): > 25 µM; IC50 (GLI1 mRNA expression [2]; ASZ001, Table 5, GLI1 mRNA): 0.04 ± 0.01 µM; GI50 (ASZ001 cells; Table 5, 48 h): 73.6 ± 13.7 µM; GI50 (PANC-1 (pancreatic)): 80.7 ± 14.2 µM |
